Experimental data: patent publication US20070032465A1, “Pharmaceutical composition comprising a p2x7-receptor antagonist and a tumour necrosis factor alpha” (priority 2003, published 2007)

Tested on: Streptococcal cell wall (SCW)-induced arthritis in female Lewis rats
Assay: Rat streptococcal cell wall (SCW)-induced arthritis: ankle swelling and von Frey mechanical threshold
Format: in vivo
Settings: P2X7 antagonist 1 30 mg/kg oral bid, Etanercept 0.5 mg/kg s.c.; for % reduction of AUC (compared to arthritic vehicle control), Ankle swelling: AUC from day -1 to day 6 post-induction; for % reduction of AUC (compared to arthritic vehicle control), Von Frey threshold: von Frey filaments on days -1, 1, 3, 5
Description: Assessment of Anti-Inflammatory Activity of TNFα Inhibitor/P2X7 Anatagonist Combinations in Rat Streptococcal Cell Wall-Induced Arthritis. ^1 1. Experimental procedure based on that described by Carlson R P, Jacobsen P B; ‘Comparison of adjuvant and streptococcal cell wall-induced arthritis in the rat’ in Morgan D W, Marshall L A, editors; In Vivo Models of Inflammation. Basel: Birkhauser Verlag; 1999.
Streptococcal cell wall (SCW)-induced arthritis was induced in the left ankle of female Lewis rats. Animals were sensitised by intra-articular injection of 5 μg (in 20 μL) SCW (Lee Laboratories) into the left ankle. Ankle swelling was assessed 3 days after injection and non-responders (animals with no apparent ankle swelling) were rejected. Responding animals were randomly allocated to the test groups.
Arthritis was induced 21 days after sensitisation by intravenous (iv) injection of SCW (100 μg in 500 μL saline). Animals were monitored and assessed on a daily basis through to termination 6 days after induction. The rats were housed on sawdust and provided with food and water ad libitum.
In this example the P2X7 antagonist 1, was orally dosed at 30 mg/kg (4 mL/kg, bid). The compound was dosed as a suspension in 1% (w/v) methylcellulose in deionised water and was freshly prepared on a daily basis. Dosing commenced 1 day prior to induction of arthritis and continued through to termination on day 6 post-induction. Etanercept (0.5 mg/kg) was administered by subcutaneous injection (1 mL/kg) 1 day prior to induction of arthritis and then on days 1, 3 and 5 post-induction.
Ankle diameters were measured with vernier callipers on a daily basis from day −1. Mechanical thresholds were assessed using von Frey filaments on days −1, 1, 3 and 5. The filaments were applied in increasing weights to the ankle region on the footpad of both feet. The first filament to induce a withdrawal response was considered to be the threshold.
Effects on ankle swelling and mechanical threshold were calculated on an area under the curve (AUC) basis, as the sum of the differences from individual day −1 values. The size and direction of the interaction was calculated and data analysis performed by ANOVA followed by Dunnett's test on the AUC data (SAS version 8.01).

Compound	% reduction of AUC (compared to arthritic vehicle control), Ankle swelling [%]	% reduction of AUC (compared to arthritic vehicle control), Von Frey threshold [%]
Cc1ccc(C(=O)N2CC3CNCC(C2)O3)cc1NC(=O)CC12CC3CC(CC(C3)C1)C2.Cl [P2X7 antagonist 1, N-[2-Methyl-5-(9-oxa-3,7-diazabicyclo[3.3.1]non-3-ylcarbonyl)phenyl]-tricyclo[3.3.1.1^3,7]decane-1-acetamide, hydrochloride]	28.5 ± 13.5	21.1 ± 10.9
Etanercept	44.0 ± 4.7	7.4 ± 6.8
